Measurements from patent US8614247B2, “Methods for preventing, attenuating or treating pulmonary hypertension using a serotonin transporter inhibitor, and pharmaceutical compositions for the treatment thereof” (Institut National de la Sante et de la Recherche Medicale, priority 2003, dated 2013).

Columns and labels:
[1] = tested on: human pulmonary artery smooth muscle cells (PA-SMCs); assay: 5-HT-induced proliferation of human PA-SMCs ([3H]thymidine incorporation); assay type: cell-based; conditions: cells in 0.2% FCS; for 5-HT-induced increase in [3H]thymidine incorporation (mitogenic response to 5-HT): drug at 10^−5 M, added before 5-HT
Experimental: Effect of 5-HT on the Proliferation of Human Pulmonary Artery Smooth Muscle Cells (PA-SMCs)
The methods used for the culture and the characterization of human PA-SMCs have been previously described (Eddahibi, Humbert et al. 2001). In brief, PA-SMCs were obtained from patients undergoing lung resection for cancer. They were seeded in 24-well plates at a density of 5×10^4 cells/well and allowed to adhere in DMEM supplemented with 15% fœtal calf serum (FCS). Cells were then subjected to 48 h of growth arrest in medium containing only 0.2% FCS before being incubated in DMEM supplemented with 0.2% FCS, 0.6 mM of ascorbic acid, 0.1 mM of iproniazid (a monoamine oxidase inhibitor), 0.6 μCi/mL of [^3H]thymidine, with or without 5-HT (10^−8 to 10^−6 M). […] Each of these drugs was added 20 min before 5-HT. After incubation for 24 hours, cells were washed twice with PBS, treated with ice-cold 10% trichloroacetic acid (1 ml/well), and dissolved in 0.1 N NaOH (0.5 ml/well). The incorporated radioactivity was counted and reported as cpm per well.

[2] = tested on: mice exposed to acute hypoxia; assay: Hemodynamic response (RVSP) of normoxic mice to acute hypoxia; assay type: in vivo, mice (C57BL6/J); conditions: two-day pretreatment; for pressure (RVSP) response to acute hypoxia: antagonists 2 mg/kg/day i.p., compared with vehicle-treated controls
Experimental: All experiments were performed using adult male mice (C57BL6/J, 8 weeks old) in conformity with the institutional guidelines that are in compliance with national and international laws and policies.
Mice were anaesthetized with ketamine (60 mg/kg, i.p) and xylazine (10 mg/kg, i.p). The trachea was cannulated, and the lungs were ventilated with room air at a tidal volume of 0.2 ml and a rate of 90 breaths per minute. Systemic arterial pressure was determined by catheterization of the carotid artery. A 26-gauge needle was then introduced percutaneously into the right ventricle via the subxyphoid approach. Right ventricular systolic pressure (RVSP) was measured using a Gould P10 EZ pressure transducer connected to pressure modules and a Gould TA 550 recorder. RVSP and heart rate were recorded first while the animal was ventilated with room air and then after 5 min of ventilation with hypoxic gas mixture (8% O2, 92% N2). […] If the heart rate fell below 300 bpm, measurements were excluded from analysis.
To investigate the effects of 5-HTT inhibition and/or 5-HT receptor blockade on acute hypoxic vasoconstriction, nine groups of mice (6-7 in each group) were studied. […] The last group consisted of control animals that received distilled water by gavage. The treatments were performed for two days and acute hypoxic vasoconstriction was measured on the following day one hour after the last treatment.

mice in normoxia = assay: Physiological parameters during normoxia after treatment; assay type: in vivo, mice (C57BL6/J); conditions: control mice 88±7 mmHg
[3] = tested on: mice exposed to chronic hypoxia; assay type: in vivo, mice (C57BL6/J); conditions: for muscularization of distal pulmonary vessels: vs control mice under similar hypoxic conditions; for hypoxia-induced increase in RVSP: 2-week hypoxia (10% O2), daily treatment: citalopram, fluoxetine 10 mg/kg/day, ketanserin 2 mg/kg/day, GR127935 2 or 10 mg/kg/day, vs vehicle
Experimental: All experiments were performed using adult male mice (C57BL6/J, 8 weeks old) in conformity with the institutional guidelines that are in compliance with national and international laws and policies. […] To establish the hypoxic environment, the chamber was flushed with a mixture of room air and nitrogen, and the gas was recirculated. The chamber environment was monitored using an oxygen analyzer (Servomex OA150, Crowborough, England). Carbon dioxide was removed by soda lime granules, and excess humidity was prevented by cooling the recirculation circuit. The chamber temperature was maintained at 22-24° C. The chamber was opened every other day for 1 hour to clean the cages and replenish food and water supplies. Normoxic mice were kept in the same room, with the same light-dark cycle. […] After incision of the abdomen and diaphragm, a 26-gauge needle connected to a pressure transducer was inserted into the right ventricle, and RVSP was recorded immediately. Blood was then sampled for hematocrit determination. […] The right ventricle (RV) was dissected from the left ventricle+septum (LV+S), and these dissected samples were weighed. The lungs were fixed by intratracheal infusion of 4% aqueous buffered formalin at a pressure of 23 cm H2O. The entire specimen was immersed in a bath of the same fixative for one week. A midsagittal slice of the right lung including the apical, azygous and diaphragmatic lobes was processed for paraffin embedding. Sections (5 μm thick) were cut for light microscopy and stained with hematoxylin-phloxin-saffron and orcein-picroindigo-carmine. In each mouse, a total of 50-60 […] vessels accompanying either alveolar ducts or alveoli were analyzed by an observer blinded to treatment. Each vessel was categorized as nonmuscular (no evidence of any vessel wall muscularization), partially muscular (SMCs identifiable in less than three-fourths of the vessel circumference), or fully muscular (SMCs in more than three-fourths of the vessel circumference). […] The percentage of pulmonary vessels in each muscularization category was determined by dividing the number of vessels in that category by the total number counted in the same experimental group. […] The animals were treated once a day during the two-week exposure to hypoxia.

rats = conditions: Keegan et al. 2001; cited from earlier work
5-HTT = 5-HTT (Rattus norvegicus, UniProt P31652); conditions: cited from earlier work
experimental hypoxic PH = conditions: previous studies (Eddahibi, Raffestin et al. 1998); cited from earlier work
[4] = tested on: rat lung SMC and lung fibroblasts; conditions: cited from earlier work
[5] = 2-week chronic hypoxia, daily treatment

5-HTT, sequence (P31652 whole entry): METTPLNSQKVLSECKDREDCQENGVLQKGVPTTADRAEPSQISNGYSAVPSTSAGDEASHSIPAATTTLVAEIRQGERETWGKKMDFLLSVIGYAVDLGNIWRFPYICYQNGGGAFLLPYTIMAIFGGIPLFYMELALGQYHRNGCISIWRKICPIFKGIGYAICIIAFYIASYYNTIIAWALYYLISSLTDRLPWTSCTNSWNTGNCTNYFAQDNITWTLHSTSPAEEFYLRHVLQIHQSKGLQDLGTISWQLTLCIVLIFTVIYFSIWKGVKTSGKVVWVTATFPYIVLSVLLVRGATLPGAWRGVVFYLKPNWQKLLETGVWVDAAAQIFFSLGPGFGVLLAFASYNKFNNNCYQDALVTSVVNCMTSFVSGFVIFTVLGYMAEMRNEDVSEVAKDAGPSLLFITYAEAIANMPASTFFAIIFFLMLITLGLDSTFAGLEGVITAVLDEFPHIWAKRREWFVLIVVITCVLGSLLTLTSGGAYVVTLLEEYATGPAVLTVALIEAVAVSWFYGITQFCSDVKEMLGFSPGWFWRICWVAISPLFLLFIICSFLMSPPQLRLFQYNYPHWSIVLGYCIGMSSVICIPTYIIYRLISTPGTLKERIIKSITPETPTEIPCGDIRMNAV

NCCc1c[nH]c2ccc(O)cc12 [5-HT, 5-hydroxytryptamine]
[3H]thymidine incorporation ([1]; 5-HT 10^−8-10^−6 M): concentration-dependent increase

COc1ccc(NC(=O)c2ccc(-c3ccc(-c4noc(C)n4)cc3C)cc2)cc1N1CCN(C)CC1 [GR127935, 2′-methyl-4′-(5-methyl-[1,2,4]oxadiazol-3-yl)-biphenyl-4-carboxylic acid [4-methoxy-3-(4-methyl-piperazine-1-yl)-phenyl]amide]
5-HT-induced increase in [3H]thymidine incorporation (mitogenic response to 5-HT) [1]: not affected
pressure (RVSP) response to acute hypoxia [2]: abolished the pressure response to hypoxia
Mean systemic arterial pressure (mice in normoxia): 85±6 mmHg
muscularization of distal pulmonary vessels [3, 5]: did not affect
right ventricular hypertrophy (RV/LV+S ratio) ([3]; 2-week chronic hypoxia, daily treatment, vs hypoxic vehicle-treated mice (41.5±1.5%)): did not differ
hypoxia-induced increase in RVSP [3]: did not differ
protection against development of PH (rats): partial protection

Cl.Cn1ccc2cc3c(cc21)CCN3C(=O)Nc1cccnc1 [SB 206553, N-3-pyridinyl-3,5-dihydro-5-methyl-benzo[1,2-b:4,5-b′]dipyrrole-1(2H)-carboxamide hydrochloride]
5-HT-induced increase in [3H]thymidine incorporation (mitogenic response to 5-HT) [1]: not affected

NC1=NCC(c2ccccc2)O1 (stereo not shown) [a minorex]
5-HTT substrate (5-HTT): 5-HTT substrates

CC(C)(N)Cc1ccc(Cl)cc1 [chlorphentermine]
5-HTT substrate (5-HTT): 5-HTT substrates

CN(C)CCCC1(c2ccc(F)cc2)OCc2cc(C#N)ccc21 (stereo not shown) [citalopram]
Mean systemic arterial pressure (mice in normoxia): 87±7 mmHg

CCN[C@@H](C)Cc1cccc(C(F)(F)F)c1 [dexfenfluramine]
development of experimental hypoxic PH (experimental hypoxic PH): not to attenuate

CCNC(C)Cc1cccc(C(F)(F)F)c1 (stereo not shown) [fenfluramine]
mitogenic effect [4]: mitogenic

CNCCC(Oc1ccc(C(F)(F)F)cc1)c1ccccc1 (stereo not shown) [fluoxetine]
5-HT-induced increase in [3H]thymidine incorporation (mitogenic response to 5-HT) [1]: completely abolished
baseline RVSP ([2]; 10 mg/kg/day by gavage, normoxic ventilation): did not alter
Mean systemic arterial pressure (mice in normoxia): 86±5 mmHg
muscularization of distal pulmonary vessels [3, 5]: markedly attenuated
hypoxia-induced increase in RVSP [3]: significantly attenuated

O=C(c1ccc(F)cc1)C1CCN(CCn2c(=O)[nH]c3ccccc3c2=O)CC1 [ketanserin]
5-HT-induced increase in [3H]thymidine incorporation (mitogenic response to 5-HT) [1]: not affected
pressure (RVSP) response to acute hypoxia [2]: altered neither the response to acute hypoxia
Mean systemic arterial pressure (mice in normoxia): 83±4 mmHg
